Results reported in publication PMC3013379 (Bioorganic & Medicinal Chemistry Letters, 2011).

Legend:
human recombinant IKK-β = target: T1, human recombinant IKK-β (Homo sapiens, UniProt O14920); test: ELISA-based; type: biochemical
T1 sequence (O14920 1-756): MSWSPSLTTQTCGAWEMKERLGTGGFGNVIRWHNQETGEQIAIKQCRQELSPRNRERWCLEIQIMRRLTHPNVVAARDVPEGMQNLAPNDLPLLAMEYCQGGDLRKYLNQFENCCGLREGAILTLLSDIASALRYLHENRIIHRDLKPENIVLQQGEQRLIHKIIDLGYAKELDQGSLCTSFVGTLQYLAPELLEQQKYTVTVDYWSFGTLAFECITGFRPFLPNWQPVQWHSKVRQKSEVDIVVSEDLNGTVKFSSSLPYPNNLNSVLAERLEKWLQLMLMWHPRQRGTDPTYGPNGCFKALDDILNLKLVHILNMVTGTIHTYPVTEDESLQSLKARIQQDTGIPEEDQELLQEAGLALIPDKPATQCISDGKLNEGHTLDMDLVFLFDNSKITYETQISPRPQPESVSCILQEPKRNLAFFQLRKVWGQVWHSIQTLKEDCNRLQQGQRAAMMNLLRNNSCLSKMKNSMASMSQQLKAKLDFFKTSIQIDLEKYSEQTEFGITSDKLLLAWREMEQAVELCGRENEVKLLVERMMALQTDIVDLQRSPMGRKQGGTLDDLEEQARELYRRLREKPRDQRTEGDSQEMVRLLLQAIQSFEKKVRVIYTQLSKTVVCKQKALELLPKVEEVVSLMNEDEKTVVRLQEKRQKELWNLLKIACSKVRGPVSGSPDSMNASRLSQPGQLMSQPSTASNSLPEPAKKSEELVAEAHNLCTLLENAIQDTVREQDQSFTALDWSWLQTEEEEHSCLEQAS

[1] = system: NF-κB activation induced by TNF-α in HEK293 cells (293/NFκB-luc); type: cell-based; settings: HEK293 NF-κB luciferase reporter cells, 2 ng/ml TNF-α for 6 h

| SMILES | IC50 (human recombinant IKK-β) | Effect on TNF-α-induced luciferase activity (in words) [1] |
| --- | --- | --- |
| O=C(OCCC12CC3CC(CC(C3)C1)C2)c1ccc(NCc2cc(O)ccc2O)cc1 [Compound 8, 2-(1-adamantyl)ethyl 4-[(2,5-dihydroxyphenyl)methylamino]benzoate] | 6.95 ± 0.55 µM | inhibited TNF-α-induced luciferase activity dose-dependently |
| NC(=O)Nc1sc(-c2ccc(F)cc2)cc1C(N)=O [IKK-β inhibitor IV, reference compound] |  | inhibited TNF-α-induced luciferase activity dose-dependently |
